Results published in ChEMBL document CHEMBL4477271, “Synthesis and antitumor activity evaluation of 4,6-disubstituted quinazoline derivatives as novel PI3K inhibitors” (Bioorg Med Chem Lett, 2016).
pIC50: −log10 of the molar value.

Experiments:
HCT-116 = test: Antiproliferative activity against human HCT116 cells harboring PI3CA H1047R mutant after 72 hrs by MTT assay; format: functional, cell-based; settings: HCT-116, 72 h
MCF7 = test: Antiproliferative activity against human MCF7 cells harboring PI3CA E545K mutant after 72 hrs by MTT assay; format: functional, cell-based; settings: MCF7, 72 h
[1] = target: Phosphatidylinositol 4,5-bisphosphate 3-kinase catalytic subunit alpha isoform (Homo sapiens, UniProt P42336); test: Inhibition of PI3Kalpha (unknown origin) assessed as reduction in ATP depletion using lipid substrate after 40 mins by Kinase-Glo luminescent assay
[2] = target: Phosphatidylinositol 4,5-bisphosphate 3-kinase catalytic subunit beta isoform (Homo sapiens, UniProt P42338); test: Inhibition of PI3Kbeta (unknown origin) assessed as reduction in ATP depletion using lipid substrate after 40 mins by Kinase-Glo luminescent assay
[3] = target: T1, Phosphatidylinositol 4,5-bisphosphate 3-kinase catalytic subunit delta isoform (Homo sapiens, UniProt O00329); test: Inhibition of PI3Kdelta (unknown origin) assessed as reduction in ATP depletion using lipid substrate after 40 mins by Kinase-Glo luminescent assay
T1 sequence (O00329 whole entry): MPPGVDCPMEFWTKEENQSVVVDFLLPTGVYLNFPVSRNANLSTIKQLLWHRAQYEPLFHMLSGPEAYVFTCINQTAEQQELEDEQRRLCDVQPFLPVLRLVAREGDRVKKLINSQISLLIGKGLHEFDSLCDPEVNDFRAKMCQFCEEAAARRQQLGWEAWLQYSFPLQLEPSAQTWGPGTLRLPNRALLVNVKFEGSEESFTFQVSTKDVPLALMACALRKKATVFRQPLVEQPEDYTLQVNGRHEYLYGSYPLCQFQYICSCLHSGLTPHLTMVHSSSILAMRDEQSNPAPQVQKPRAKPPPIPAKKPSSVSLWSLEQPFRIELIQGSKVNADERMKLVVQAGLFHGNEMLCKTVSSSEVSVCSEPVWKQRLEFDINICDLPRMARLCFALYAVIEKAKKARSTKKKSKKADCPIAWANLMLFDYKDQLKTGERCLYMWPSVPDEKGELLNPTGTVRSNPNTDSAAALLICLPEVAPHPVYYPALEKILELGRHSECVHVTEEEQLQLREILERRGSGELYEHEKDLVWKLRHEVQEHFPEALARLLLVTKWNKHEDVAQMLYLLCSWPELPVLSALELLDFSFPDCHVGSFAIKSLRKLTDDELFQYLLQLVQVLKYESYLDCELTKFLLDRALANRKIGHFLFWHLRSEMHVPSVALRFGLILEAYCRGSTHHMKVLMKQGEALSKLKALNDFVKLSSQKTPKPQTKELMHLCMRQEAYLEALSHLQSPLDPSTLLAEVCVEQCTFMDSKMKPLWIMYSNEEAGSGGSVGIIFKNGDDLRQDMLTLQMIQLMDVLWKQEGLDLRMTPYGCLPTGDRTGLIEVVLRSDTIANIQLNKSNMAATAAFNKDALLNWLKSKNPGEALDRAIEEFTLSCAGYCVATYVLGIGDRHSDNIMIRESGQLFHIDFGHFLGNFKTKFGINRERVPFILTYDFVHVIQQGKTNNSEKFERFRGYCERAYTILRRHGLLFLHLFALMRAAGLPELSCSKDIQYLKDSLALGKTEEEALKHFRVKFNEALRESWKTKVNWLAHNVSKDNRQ

[4] = target: Phosphatidylinositol 4,5-bisphosphate 3-kinase catalytic subunit gamma isoform (Homo sapiens, UniProt P48736); test: Inhibition of PI3Kgamma (unknown origin) assessed as reduction in ATP depletion using lipid substrate after 40 mins by Kinase-Glo luminescent assay
CCRF S-180 [5] = test: Antitumor activity against mouse S180 cells implanted in mouse assessed as tumor growth inhibition at 5 mg/kg, po qd for 8 days relative to control; format: functional; settings: CCRF S-180, po, 192 h, read-out: TGI
CCRF S-180 [6] = test: Antitumor activity against mouse S180 cells implanted in mouse assessed as tumor growth inhibition at 15 mg/kg, po qd for 8 days relative to control; format: functional; settings: CCRF S-180, po, 192 h, read-out: TGI
CCRF S-180 [7] = test: Antitumor activity against mouse S180 cells implanted in mouse assessed as tumor growth inhibition at 50 mg/kg, po qd for 8 days relative to control; format: functional; settings: CCRF S-180, po, 192 h, read-out: TGI
[8] = Toxicity in mouse implanted with mouse S180 cells assessed as body weight loss at 5 to 50 mg/kg, po qd for 8 days; format: organism-based; settings: in vivo, 192 h

Sequence of Phosphatidylinositol 4,5-bisphosphate 3-kinase catalytic subunit alpha isoform (P42336 whole entry, canonical isoform): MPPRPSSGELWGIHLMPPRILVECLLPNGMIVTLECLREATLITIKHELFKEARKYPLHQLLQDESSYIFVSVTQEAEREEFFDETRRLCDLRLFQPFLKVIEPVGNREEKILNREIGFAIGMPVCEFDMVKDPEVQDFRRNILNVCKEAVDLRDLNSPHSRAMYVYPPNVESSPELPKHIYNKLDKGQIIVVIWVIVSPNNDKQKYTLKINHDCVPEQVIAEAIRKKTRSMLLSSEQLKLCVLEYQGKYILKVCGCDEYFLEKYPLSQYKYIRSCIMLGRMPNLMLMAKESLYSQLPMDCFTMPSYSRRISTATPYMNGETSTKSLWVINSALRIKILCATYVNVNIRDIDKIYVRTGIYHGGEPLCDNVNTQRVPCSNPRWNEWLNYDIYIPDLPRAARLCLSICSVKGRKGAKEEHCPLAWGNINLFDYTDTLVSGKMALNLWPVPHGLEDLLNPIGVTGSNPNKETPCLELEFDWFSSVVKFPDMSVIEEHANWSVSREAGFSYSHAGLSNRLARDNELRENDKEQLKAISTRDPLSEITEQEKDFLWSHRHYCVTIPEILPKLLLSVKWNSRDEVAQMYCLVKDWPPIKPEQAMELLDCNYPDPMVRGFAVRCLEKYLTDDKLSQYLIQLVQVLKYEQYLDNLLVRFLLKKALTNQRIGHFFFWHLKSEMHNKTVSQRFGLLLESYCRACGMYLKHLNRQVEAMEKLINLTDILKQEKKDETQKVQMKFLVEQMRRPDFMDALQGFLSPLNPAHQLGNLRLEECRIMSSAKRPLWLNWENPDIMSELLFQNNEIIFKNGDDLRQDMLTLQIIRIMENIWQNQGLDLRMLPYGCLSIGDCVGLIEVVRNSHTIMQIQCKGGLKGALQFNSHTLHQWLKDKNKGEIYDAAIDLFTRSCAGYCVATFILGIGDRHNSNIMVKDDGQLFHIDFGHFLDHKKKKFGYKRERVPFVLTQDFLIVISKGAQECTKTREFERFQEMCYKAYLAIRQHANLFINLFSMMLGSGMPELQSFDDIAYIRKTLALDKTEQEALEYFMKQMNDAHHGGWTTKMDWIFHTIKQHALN
Sequence of Phosphatidylinositol 4,5-bisphosphate 3-kinase catalytic subunit beta isoform (P42338 whole entry, canonical isoform): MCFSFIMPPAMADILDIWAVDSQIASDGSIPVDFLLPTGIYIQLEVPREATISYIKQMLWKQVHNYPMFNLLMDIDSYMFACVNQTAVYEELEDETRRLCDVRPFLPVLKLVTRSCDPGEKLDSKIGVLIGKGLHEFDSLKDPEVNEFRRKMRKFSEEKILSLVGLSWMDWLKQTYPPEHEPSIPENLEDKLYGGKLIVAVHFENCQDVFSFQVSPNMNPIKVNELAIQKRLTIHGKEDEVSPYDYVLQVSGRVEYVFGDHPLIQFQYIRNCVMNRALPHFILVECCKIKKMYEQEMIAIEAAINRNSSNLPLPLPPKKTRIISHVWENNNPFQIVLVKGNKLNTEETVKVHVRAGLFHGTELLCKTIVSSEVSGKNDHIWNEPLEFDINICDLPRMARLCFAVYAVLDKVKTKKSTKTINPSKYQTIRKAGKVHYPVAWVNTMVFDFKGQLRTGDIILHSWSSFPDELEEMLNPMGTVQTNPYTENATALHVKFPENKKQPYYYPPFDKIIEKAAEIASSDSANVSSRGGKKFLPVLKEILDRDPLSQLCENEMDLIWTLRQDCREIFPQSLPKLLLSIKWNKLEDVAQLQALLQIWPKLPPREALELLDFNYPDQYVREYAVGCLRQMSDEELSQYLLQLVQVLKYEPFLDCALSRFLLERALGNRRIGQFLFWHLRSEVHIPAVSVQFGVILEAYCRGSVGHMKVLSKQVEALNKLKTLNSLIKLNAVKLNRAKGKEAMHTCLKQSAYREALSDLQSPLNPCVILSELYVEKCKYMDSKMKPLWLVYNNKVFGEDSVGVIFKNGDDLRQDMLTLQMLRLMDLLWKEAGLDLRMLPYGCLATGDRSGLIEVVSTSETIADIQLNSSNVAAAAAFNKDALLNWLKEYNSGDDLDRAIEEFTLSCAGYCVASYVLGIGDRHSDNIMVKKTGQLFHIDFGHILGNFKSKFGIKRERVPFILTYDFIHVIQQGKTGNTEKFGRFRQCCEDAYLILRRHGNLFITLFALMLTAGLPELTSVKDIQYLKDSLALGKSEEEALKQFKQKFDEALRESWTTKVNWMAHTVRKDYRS
Sequence of Phosphatidylinositol 4,5-bisphosphate 3-kinase catalytic subunit gamma isoform (P48736 whole entry, canonical isoform): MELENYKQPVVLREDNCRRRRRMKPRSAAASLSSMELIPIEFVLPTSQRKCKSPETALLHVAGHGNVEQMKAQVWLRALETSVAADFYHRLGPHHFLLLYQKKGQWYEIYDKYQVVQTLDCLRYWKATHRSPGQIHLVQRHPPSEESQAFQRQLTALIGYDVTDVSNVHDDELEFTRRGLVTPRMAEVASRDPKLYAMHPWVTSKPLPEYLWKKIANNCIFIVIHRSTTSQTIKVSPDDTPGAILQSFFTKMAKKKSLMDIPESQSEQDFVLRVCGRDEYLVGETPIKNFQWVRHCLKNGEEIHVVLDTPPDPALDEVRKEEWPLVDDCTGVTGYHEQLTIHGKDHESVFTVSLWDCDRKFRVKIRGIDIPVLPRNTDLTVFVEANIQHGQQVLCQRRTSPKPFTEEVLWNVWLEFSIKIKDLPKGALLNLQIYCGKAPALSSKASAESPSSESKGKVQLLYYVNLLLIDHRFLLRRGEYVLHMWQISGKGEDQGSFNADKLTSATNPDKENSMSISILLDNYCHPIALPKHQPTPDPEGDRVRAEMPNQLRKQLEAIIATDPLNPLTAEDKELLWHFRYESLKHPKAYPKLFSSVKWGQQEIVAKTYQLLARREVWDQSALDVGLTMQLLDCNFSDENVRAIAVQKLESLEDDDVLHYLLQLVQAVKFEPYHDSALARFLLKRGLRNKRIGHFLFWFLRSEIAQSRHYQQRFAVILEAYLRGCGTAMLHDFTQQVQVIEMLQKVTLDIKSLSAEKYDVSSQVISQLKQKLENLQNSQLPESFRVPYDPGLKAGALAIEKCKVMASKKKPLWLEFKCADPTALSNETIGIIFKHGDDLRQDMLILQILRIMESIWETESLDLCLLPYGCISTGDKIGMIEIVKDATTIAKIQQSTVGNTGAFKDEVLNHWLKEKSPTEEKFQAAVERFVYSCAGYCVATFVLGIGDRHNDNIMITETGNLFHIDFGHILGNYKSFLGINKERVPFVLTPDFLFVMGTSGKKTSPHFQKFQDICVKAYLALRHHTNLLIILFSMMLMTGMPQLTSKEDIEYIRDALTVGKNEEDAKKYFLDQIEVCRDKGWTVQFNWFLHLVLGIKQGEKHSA

Row | pIC50 (HCT-116) | pIC50 (MCF7) | SMILES | other results
1 | 4.53 | 4.41 | COc1ccc(-c2ccc3ncnc(NCCN4CCCCC4)c3c2)cc1C(N)=O | –
2 | 4.80 | 5.53 | COc1ccc(-c2ccc3ncnc(NCCN(C)C)c3c2)cn1 | –
3 | 6.25 | 5.49 | COc1ncc(-c2ccc3ncnc(NCCN(C)C)c3c2)cc1C#N | pIC50 [1]: 5.52
4 | 5.03 | 5.14 | COc1ncc(-c2ccc3ncnc(OCCN(C)C)c3c2)cc1[N+](=O)[O-] | –
5 | 5.13 | 4.79 | CCN(CC)CCNc1ncnc2ccc(-c3cnc(OC)c([N+](=O)[O-])c3)cc12 | –
6 | 4.65 | 5.62 | COc1ccc(-c2ccc3ncnc(NCCN4CCCCC4)c3c2)cn1 | –
7 | 5.57 | 5.56 | COc1ncc(-c2ccc3ncnc(NCCN4CCCCC4)c3c2)cc1C#N | –
8 | 5.29 | 5.18 | COc1ncc(-c2ccc3ncnc(OCCN(C)C)c3c2)cc1C#N | –
9 | 6.29 | 5.68 | COc1ncc(-c2ccc3ncnc(NCCN4CCOCC4)c3c2)cc1C#N | pIC50 [1]: 6.33; pIC50 [2]: 6.52; pIC50 [3]: 7.43; pIC50 [4]: 6.03; inhibition in vivo at 5 mg/kg (CCRF S-180 [5]): 33%; inhibition in vivo at 15 mg/kg (CCRF S-180 [6]): 49%; inhibition in vivo at 50 mg/kg (CCRF S-180 [7]): 68.4%; Activity [8]: Non-Toxic
10 | 5.74 | 5.54 | COc1ncc(-c2ccc3ncnc(NCCN4CCOCC4)c3c2)cc1[N+](=O)[O-] | –
11 | 5.63 | 5.21 | COc1ncc(-c2ccc3ncnc(NCCN4CCCC4)c3c2)cc1C#N | –
12 | 5.69 | 5.41 | CCN(CC)CCNc1ncnc2ccc(-c3cnc(OC)c(C#N)c3)cc12 | –
13 | 4.41 | 4.46 | COc1ccc(-c2ccc3ncnc(NCCN4CCOCC4)c3c2)cn1 | –
14 | 6.19 | 5.06 | COc1ncc(-c2ccc3ncnc(NCCN4CCCCC4)c3c2)cc1[N+](=O)[O-] | pIC50 [1]: 5.50
15 | 4.61 | 4.53 | COc1ccc(-c2ccc3ncnc(NCCN4CCOCC4)c3c2)cc1C(N)=O | –
16 | 5.02 | 5.06 | CCN(CC)CCNc1ncnc2ccc(-c3ccc(OC)nc3)cc12 | –
17 | 5.41 | 5.00 | COc1ccc(-c2ccc3ncnc(NCCN4CCCC4)c3c2)cn1 | –
